Measured values as given in US12215389B2, “Compositions for detecting epigenetic modifications” (EXACT SCIENCES CORPORATION, priority 2007, dated 2025).

How the values were obtained:
[1] = test system: methylated gene promoters in FFPE tissue DNA; experiment: Real-time MSP on colon tissue samples; parameters: species or system human; details: for Specificity (%) / Sensitivity (%): 50 cases (adenoma + carcinoma) vs 39 controls, tissue
Experimental: Real-time MSP was applied on a 7900HT fast real-time PCR system (Applied Biosystems). 2.4 μl of the modified DNA (equivalent to 2.5 μg unconverted DNA) was added to a PCR mix (total volume 12 μl) containing buffer (16.6 mM (NH4)2SO4, 67 mM Tris (pH 8.8), 6.7 mM MgCl2, 10 mM β-mercaptoethanol), dNTPs (5 mM), forward primer (6 ng), reverse primer (18 ng), molecular beacon (0.16 μM), BSA (0.1 μg), and Jumpstart DNA Taq polymerase (0.4 units; Sigma Aldrich). Cycle program used was as follows: 5 minutes 95° C., followed by 45 cycles of 30 seconds 95° C., 30 seconds 57° C. (51° C. for APC), and 30 seconds 72° C., followed by 5 minutes 72° C. A standard curve (2×106—20 copies) was included to determine copy numbers of unknown samples by interpolation of their Ct values to the standard curve.
Marker selection in colon tissue: Based on re-expression, 224 different gene assays representing 145 gene promotors were tested on the Base5 methylation profiling platform (data not shown, see reference 1 for details). The 37 most differentially methylated gene sequences assessing 29 gene promoters were validated on retrospectively collected tumors from 65 colorectal cancer patients (all stages) and 74 distant resection ends (histopathologically normal) using real-time MSP. Several markers reliably detected CRC in those tissue samples (data not shown). The results were confirmed on an independent test set containing 39 tissue controls (non-cancerous), 34 carcinomas and 16 adenomas. Several combinations of the tested markers reliably detected CRC with high specificity and sensitivity.
The ten best performing markers GATA5, GATA4, SFRP1, SFRP2, APC, MGMT, NDRG4, OSMR, JPH3 and ADAM23 were validated with primer sets and beacon probes as specified in Table 24. In addition to the colon test genes, the independent reference gene β-Actin (ACT) was also measured. The ratios between the colon test genes and ACT were calculated, and are the test result of the assay.
Marker candidates identified by re-expression were screened using 37 real-time methylation specific PCR (real-time MSP) assays. These assays were used to assess the methylation status of 29 gene promoters in 293 formalin-fixed paraffin-embedded (FFPE) tissue samples collected from various clinics. Samples included 99 carcinomas of various stages, 16 adenomas, 63 samples from patients with cancer other than CRC (20 breast [stages I-III], 22 bladder [stages I-III], 21 lung [stages I and II]), 39 samples from patients with no evidence of cancer and 76 distant resection ends (histopathologically normal) from CRC patients. These samples were divided into training and independent test sets, and used to select the gene methylation assays best able to discriminate between cancerous and non-cancerous samples. The training set included retrospectively collected tumors from 65 colorectal cancer patients (all stages) and 74 distant resection ends. Using the 10 best performing genes the results were confirmed on an independent test set containing 59 samples from patients with cancer other than CRC, 39 non-cancerous controls and 50 cancer cases (34 carcinomas and 16 adenomas).
The individual performance of the 10 best performing tissue markers OSMR, SFRP1, GATA4, SFRP2, NDRG4, ADAM23, GATA5, MGMT, APC and JPH3 is shown in FIG. 7, when the analytical cut-off was set to give 100% specificity, except for JPH3 where a specificity of 95% was obtained (based on the 39 non-cancerous controls). In addition to the colon test genes, the independent reference gene β-Actin (ACT) was also measured. The ratios between the colon test genes and ACT were calculated, and are the test result of the assay.

[2] = test system: methylated gene promoters in fecal DNA; experiment: Real-time MSP on stool (fecal) DNA; parameters: species or system human; details: fecal samples; for Sens adenoma: 13 samples; for Sens CRC: 15 samples; for Spec: 19 samples
Source text: A standardized multicenter screening trial (The Netherlands) was initiated in 2006. In this trial, non symptomatic subjects aged 50 or above are screened with colonoscopy, FOBT and real-time MSP using DNA from stool and blood. In addition, prospectively collected stool samples from multiple centers (Germany and The Netherlands) were used. In these trials, symptomatic patients, attending a Gastroenterology clinic and ultimately diagnosed with CRC, provided a stool sample for use in real-time MSP. From the ongoing trials 147 stool samples were available for the present study. 3 main categories of stool samples were used: 67 samples with no suspicious findings, 58 adenomas and 22 samples from patients covering all stages of CRC, with 90% representing early stage disease.
After defecation in a special bucket, patients added 250 ml of stool homogenization buffer (Amresco, Solon, Ohio, USA) to the sample. Samples were shipped to the laboratory and further processed within 72 hours after defecation. Stool homogenization buffer was added to a ratio 1:7, and the samples were homogenized and aliquoted in portions of 32 ml.
Single aliquots (32 ml containing the equivalent of 4 g of stool) were centrifuged for 5 minutes at 2540 rcf at 20° C. The supernatant was retained and centrifuged a second time (10 minutes at 16500 rcf at 4° C.). 22 ml of the supernatant obtained following the second centrifugation step was incubated with 5 μl Rnase A for 60 minutes at 37° C. Total DNA was then SodiumAcetate (pH 5.2)-isopropanol precipitated and washed with 70% ethanol. The DNA was resuspended in 4 ml 1×TE (pH 7.4). 400 μl 10× buffer (240 mM EDTA (pH=8.0), 750 mM NaC), 400 μl 10% SDS, and 20 μl Proteinase K (20 mg/ml) was added and the samples were incubated at 48° C. overnight at constant shaking (225 RPM). After centrifugation (3000 RCF for 30 seconds at room temperature), 5 ml of Phenol:Chloroform:Isoamylalcohol (25:24:1, v/v:Invitrogen) was added and incubated for 10 minutes at room temperature shaking at 225 RPM and centrifuged for 5 minutes at 3000 RCF. The aqueous layer was transferred to a new tube containing 5 ml of Phenol:Chloroform:Isoamylalcohol. Again, the samples were incubated for 10 minutes at room temperature shaking at 225 RPM and centrifuged for 5 minutes at 3000 RCF at room temperature. The aqueous layer was transferred to a new tube and DNA was precipitated by adding 500 μl 7.5 M Ammonium Acetate, 5 μl glycogen and 10 ml of cold 100% Ethanol (−20° C.), further incubated at −20° C. for at least 1 hour and centrifuged at 15000 RCF for 30 minutes at 4° C. Pellets were washed with 3.5 ml freshly prepared 70% Ethanol and air dried. Pellets were finally resuspended in 2 ml of LoTE pH 8.0 and stored at −80° C., until further processing.
An upscaled DNA modification step was applied to 32 μg of the obtained DNA. 16 Aliquots of 2 μg of DNA were subjected to bisulfite modification in 96-wells format on a pipetting robot (Tecan), using the EZ-96DNA Methylation kit (Zymo Research), according to the manufacturer's protocol. Basically, aliquots of 45 μl were mixed with 5 μl of M-Dilution Buffer and incubated at 37° C. for 15 minutes shaking at 1100 rpm. Then 100 μl of the diluted CT Conversion Reagent was added and samples were incubated at 70° C. for 3 hours, shaking at 1100 rpm in the dark. After conversion, the samples were desalted by incubation on ice for 10 minutes and addition of 400 μl of M-Binding buffer. The samples were loaded on a Zymo-Spin I Column in a collection tube and after centrifugation washed with 200 μl of M-Wash Buffer. 200 μl of M-Desulphonation Buffer was put onto the column and incubated at room temperature for 15 minutes. After centrifugation of the columns, they were washed twice with 200 μl of M-Wash Buffer. Finally, the DNA was washed from the column in 50 μl Tris-HCl 1 mM pH8.0 and stored at −80° C., until further processing.

[3] = test system: NDRG4 or OSMR plasmid material; experiment: Real-time MSP assay designs on plasmid material; parameters: key to Ct / Duplicate Ct / Average Ct: cycle number at which amplification curve crosses threshold; details: for PCR efficiency: from standard curve on plasmid material
Experimental: Plasmid material corresponding to a promoter region of NDRG4 and OSMR gene was used to test additional assay designs. The plasmid for the standard curve was generated as follows: the promoter sequence as defined by the primers is PCR amplified and cloned (using suitable isolated and bisulphite modified cell line DNA). The sequence is verified by sequencing and compared to the published promoter sequence. A serial dilution of either NDRG4 or OSMR plasmid material (2×10^6 to 2×10^1 copies/5 μl) was loaded in duplicate. 5 μl of plasmid dilution or buffer (non template control) was added to a 20 μl PCR mix containing the specified primer and beacon detector sequences as previously described. Results were generated using the SDS 2.2 software from Applied Biosystems with automatic baseline and threshold settings. Data were exported as Ct values (cycle number at which the amplification curves cross the threshold value, set automatically by the software).

[4] = 16 adenoma tissue samples vs 39 controls
[5] = 34 carcinoma tissue samples vs 39 controls
[6] = plasmid standard, quantity 20 copies
[7] = plasmid standard, quantity 200 copies
[8] = plasmid standard, quantity 2000 copies
[9] = plasmid standard, quantity 20000 copies
[10] = plasmid standard, quantity 200000 copies
[11] = plasmid standard, quantity 2000000 copies

GATA4 (DNA AGGTTAGTTAGCGTTTTAGGGTC; listed as DNA, chemistry not given here)
Sensitivity [1, 4]: 88%
Specificity [1, 4]: 100%
Sensitivity [1, 5]: 74%
Specificity [1, 5]: 100%
Specificity (%) [1]: 100%
Sensitivity (%) ([1]; first cut off ratio): 78%
Sensitivity (%) ([1]; second cut off ratio, between ( )): (82) %
Sens adenoma [2]: 15%
Sens CRC [2]: 73%
Spec [2]: 100%

MGMT (DNA TTTCGACGTTCGTAGGTTTTCGC; listed as DNA, chemistry not given here)
Sensitivity [1, 4]: 63%
Specificity [1, 4]: 100%
Sensitivity [1, 5]: 35%
Specificity [1, 5]: 100%
Specificity (%) [1]: 100%
Sensitivity (%) ([1]; first cut off ratio): 44%

OSMR (3) (DNA TTTGGTCGGGGTAGGAGTAGC; listed as DNA, chemistry not given here)
Sensitivity [1, 4]: 88%
Specificity [1, 4]: 100%
Sensitivity [1, 5]: 88%
Specificity [1, 5]: 100%
Specificity (%) [1]: 100%
Sensitivity (%) ([1]; first cut off ratio): 88%
Sens adenoma [2]: 8%
Sens CRC [2]: 67%
Spec [2]: 100%

OSMR_3 (DNA TTTGGTCGGGGTAGGAGTAGC; listed as DNA, chemistry not given here)
Ct ([3]; NTC (non template control), quantity 0): 38.13
PCR efficiency [3]: 97.2%
Average Ct [3, 6]: 33.98
Ct [3, 6]: 34.18
Duplicate Ct [3, 6]: 33.77
Average Ct [3, 7]: 30.59
Ct [3, 7]: 30.51
Duplicate Ct [3, 7]: 30.67
Average Ct [3, 8]: 27.19
Ct [3, 8]: 27.22
Duplicate Ct [3, 8]: 27.16
Average Ct [3, 9]: 23.90
Ct [3, 9]: 23.97
Duplicate Ct [3, 9]: 23.83
Average Ct [3, 10]: 20.35
Ct [3, 10]: 20.41
Duplicate Ct [3, 10]: 20.29
Average Ct [3, 11]: 17.04
Ct [3, 11]: 16.93
Duplicate Ct [3, 11]: 17.16

OSMR_4 (DNA TTTGGTCGGGGTAGGAGTAGC; listed as DNA, chemistry not given here)
PCR efficiency [3]: 100.8%
Average Ct [3, 6]: 34.37
Ct [3, 6]: 34.63
Duplicate Ct [3, 6]: 34.12
Average Ct [3, 7]: 31.28
Ct [3, 7]: 31.37
Duplicate Ct [3, 7]: 31.18
Average Ct [3, 8]: 28.08
Ct [3, 8]: 28.24
Duplicate Ct [3, 8]: 27.91
Average Ct [3, 9]: 24.72
Ct [3, 9]: 24.79
Duplicate Ct [3, 9]: 24.64
Average Ct [3, 10]: 21.31
Ct [3, 10]: 21.56
Duplicate Ct [3, 10]: 21.05
Average Ct [3, 11]: 18.07
Ct [3, 11]: 18.24
Duplicate Ct [3, 11]: 17.90
